We go through three molecules from ChEMBL document CHEMBL5715954, “Silencing c-Myc translation as a therapeutic strategy through targeting PI3Kδ and CK1ε in hematological malignancies” (Blood, 2017).

The structures appear in SMILES notation.

Holding throughout (design): scale not given: the % may be the effect or the level left
The target of assay [1] is Glycogen synthase kinase-3 beta (Homo sapiens) (UniProt P49841). Put plainly: Inhibition of human GSK3b assessed as enzyme activity at 1 uM using YRRAAVPPSPSLSRHSSPHQ(pS)EDEEE as substrate preincubated for 20 mins followed by [gamma-33P]-ATP addition and measured after 120 mins by radiometric Hot-SpotSM Kinase assay relative to control.
The target of assay [2] is T1, Myotonin-protein kinase (Homo sapiens) (UniProt Q09013).
T1 sequence (whole entry): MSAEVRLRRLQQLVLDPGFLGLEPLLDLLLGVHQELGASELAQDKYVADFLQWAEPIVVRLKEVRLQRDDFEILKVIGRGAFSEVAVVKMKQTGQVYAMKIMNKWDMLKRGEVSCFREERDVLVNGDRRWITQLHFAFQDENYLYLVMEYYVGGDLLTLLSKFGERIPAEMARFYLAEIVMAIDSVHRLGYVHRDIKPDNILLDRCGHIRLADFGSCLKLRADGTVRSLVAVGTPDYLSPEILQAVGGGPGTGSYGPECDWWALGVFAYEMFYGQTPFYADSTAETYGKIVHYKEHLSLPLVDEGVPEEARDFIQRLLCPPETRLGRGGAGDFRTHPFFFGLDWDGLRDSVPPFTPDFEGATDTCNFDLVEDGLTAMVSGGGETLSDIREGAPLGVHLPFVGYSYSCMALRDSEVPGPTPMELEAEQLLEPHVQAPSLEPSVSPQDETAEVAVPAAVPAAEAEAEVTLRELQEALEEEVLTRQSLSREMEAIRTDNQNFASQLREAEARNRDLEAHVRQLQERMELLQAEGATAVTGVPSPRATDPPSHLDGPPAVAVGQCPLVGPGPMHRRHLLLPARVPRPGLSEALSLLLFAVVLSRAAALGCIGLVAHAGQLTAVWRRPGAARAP
Put plainly: Inhibition of human DMPK assessed as enzyme activity at 1 uM using KKRNRRLSVA as substrate preincubated for 20 mins followed by [gamma-33P]-ATP addition and measured after 120 mins by radiometric Hot-SpotSM Kinase assay relative to control.

Assay [3] concerns the target T2, Phosphorylase b kinase gamma catalytic chain, liver/testis isoform (Homo sapiens) (UniProt P15735).
T2 sequence (whole entry): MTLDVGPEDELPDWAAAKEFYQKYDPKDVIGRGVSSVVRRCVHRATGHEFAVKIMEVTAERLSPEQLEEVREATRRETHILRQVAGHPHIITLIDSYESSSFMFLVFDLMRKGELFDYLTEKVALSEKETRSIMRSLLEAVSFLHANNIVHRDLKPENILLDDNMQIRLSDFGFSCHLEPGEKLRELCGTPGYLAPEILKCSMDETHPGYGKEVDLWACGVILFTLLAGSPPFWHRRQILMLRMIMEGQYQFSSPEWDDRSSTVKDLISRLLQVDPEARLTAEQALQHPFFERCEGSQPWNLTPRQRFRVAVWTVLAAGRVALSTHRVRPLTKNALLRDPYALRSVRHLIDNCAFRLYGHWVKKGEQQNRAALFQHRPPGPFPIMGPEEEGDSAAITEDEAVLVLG
The assay can be described thus: Inhibition of human PHKg2 assessed as enzyme activity at 1 uM using KKLNRTLSFAEPG as substrate preincubated for 20 mins followed by [gamma-33P]-ATP addition and measured after 120 mins by radiometric Hot-SpotSM Kinase assay relative to control.

The target in assay [4] is Protein kinase C beta type (Homo sapiens) (UniProt P05771). The assay can be described thus: Inhibition of human PKCb2 assessed as enzyme activity at 1 uM using ERMRPRKRQGSVRRRV as substrate preincubated for 20 mins followed by [gamma-33P]-ATP addition and measured after 120 mins by radiometric Hot-SpotSM Kinase assay relative to control.
Assay [5] deals with Macrophage-stimulating protein receptor (Homo sapiens) (UniProt Q04912). The assay can be described thus: Inhibition of human RON assessed as enzyme activity at 1 uM using KKSRGDYMTMQIG as substrate preincubated for 20 mins followed by [gamma-33P]-ATP addition and measured after 120 mins by radiometric Hot-SpotSM Kinase assay relative to control.
Assay [6] has as its target T3, MAP/microtubule affinity-regulating kinase 4 (Homo sapiens) (UniProt Q96L34).
T3 sequence (whole entry): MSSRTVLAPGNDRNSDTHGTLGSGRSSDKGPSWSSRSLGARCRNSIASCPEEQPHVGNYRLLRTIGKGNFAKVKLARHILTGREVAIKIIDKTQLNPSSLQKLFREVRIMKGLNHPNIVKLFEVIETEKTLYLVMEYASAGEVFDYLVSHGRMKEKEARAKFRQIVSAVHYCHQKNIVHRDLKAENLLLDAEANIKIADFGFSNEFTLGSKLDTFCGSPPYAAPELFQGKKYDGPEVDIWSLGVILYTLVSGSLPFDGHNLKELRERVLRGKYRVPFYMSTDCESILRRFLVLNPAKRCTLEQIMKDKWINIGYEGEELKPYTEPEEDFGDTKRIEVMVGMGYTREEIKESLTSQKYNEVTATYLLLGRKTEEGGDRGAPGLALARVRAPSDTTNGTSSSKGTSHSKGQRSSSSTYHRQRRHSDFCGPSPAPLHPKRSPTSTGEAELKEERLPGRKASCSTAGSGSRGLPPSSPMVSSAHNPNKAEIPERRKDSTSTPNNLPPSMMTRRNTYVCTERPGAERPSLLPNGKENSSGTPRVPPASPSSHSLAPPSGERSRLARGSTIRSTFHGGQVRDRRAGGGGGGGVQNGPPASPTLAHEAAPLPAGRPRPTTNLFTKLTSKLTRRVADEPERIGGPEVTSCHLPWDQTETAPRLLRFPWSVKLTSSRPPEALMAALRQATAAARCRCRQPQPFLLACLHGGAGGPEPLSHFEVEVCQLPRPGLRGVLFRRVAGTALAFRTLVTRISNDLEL
Put plainly: Inhibition of human MARK4 assessed as enzyme activity at 1 uM using KKKVSRSGLYRSPSMPENLNRPR as substrate preincubated for 20 mins followed by [gamma-33P]-ATP addition and measured after 120 mins by radiometric Hot-SpotSM Kinase assay relative to control.

Assay [7] has as its target Interleukin-1 receptor-associated kinase 1 (Homo sapiens) (UniProt P51617). The assay can be described thus: Inhibition of human IRAK1 assessed as enzyme activity at 1 uM using myelin basic protein as substrate preincubated for 20 mins followed by [gamma-33P]-ATP addition and measured after 120 mins by radiometric Hot-SpotSM Kinase assay relative to control.

Chain of Macrophage-stimulating protein receptor (Homo sapiens) (Q04912 25-304 limits assumed): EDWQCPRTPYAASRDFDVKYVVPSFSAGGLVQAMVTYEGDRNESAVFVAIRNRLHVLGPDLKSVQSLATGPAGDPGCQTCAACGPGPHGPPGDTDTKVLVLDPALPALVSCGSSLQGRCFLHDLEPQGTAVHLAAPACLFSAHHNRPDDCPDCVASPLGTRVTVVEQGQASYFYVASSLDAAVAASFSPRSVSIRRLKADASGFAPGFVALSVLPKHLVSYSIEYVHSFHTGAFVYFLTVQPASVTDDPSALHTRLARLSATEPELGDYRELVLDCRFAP
Chain of Macrophage-stimulating protein receptor (Homo sapiens) (Q04912 310-1400 limits assumed): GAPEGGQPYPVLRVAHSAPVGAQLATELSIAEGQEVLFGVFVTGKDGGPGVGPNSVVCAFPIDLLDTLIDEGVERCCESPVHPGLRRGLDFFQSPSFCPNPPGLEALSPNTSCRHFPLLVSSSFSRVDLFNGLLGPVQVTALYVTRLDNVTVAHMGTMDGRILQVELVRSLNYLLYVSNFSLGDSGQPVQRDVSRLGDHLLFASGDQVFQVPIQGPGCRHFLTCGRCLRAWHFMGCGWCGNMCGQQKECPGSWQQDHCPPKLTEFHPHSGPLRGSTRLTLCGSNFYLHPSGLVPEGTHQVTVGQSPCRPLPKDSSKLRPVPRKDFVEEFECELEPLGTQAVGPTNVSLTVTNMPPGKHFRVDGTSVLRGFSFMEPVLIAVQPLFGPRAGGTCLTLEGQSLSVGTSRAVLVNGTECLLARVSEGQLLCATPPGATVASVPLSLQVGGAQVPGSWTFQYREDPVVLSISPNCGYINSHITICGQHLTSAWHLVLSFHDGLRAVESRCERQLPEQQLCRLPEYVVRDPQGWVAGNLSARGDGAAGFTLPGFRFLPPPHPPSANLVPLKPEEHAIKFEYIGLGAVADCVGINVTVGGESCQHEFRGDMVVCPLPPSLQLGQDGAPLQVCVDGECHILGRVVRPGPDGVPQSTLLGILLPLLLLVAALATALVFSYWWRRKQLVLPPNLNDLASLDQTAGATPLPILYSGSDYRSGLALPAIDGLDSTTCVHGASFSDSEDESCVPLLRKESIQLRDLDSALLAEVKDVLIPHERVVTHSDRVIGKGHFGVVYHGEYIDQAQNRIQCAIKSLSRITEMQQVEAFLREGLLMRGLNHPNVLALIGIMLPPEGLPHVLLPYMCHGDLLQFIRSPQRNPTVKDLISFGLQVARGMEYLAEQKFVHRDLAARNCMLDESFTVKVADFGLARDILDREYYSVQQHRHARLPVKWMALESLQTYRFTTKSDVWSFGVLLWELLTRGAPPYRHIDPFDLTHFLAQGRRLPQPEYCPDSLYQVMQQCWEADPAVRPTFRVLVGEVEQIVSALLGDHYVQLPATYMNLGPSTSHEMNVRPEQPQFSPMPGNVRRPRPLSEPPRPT
Chain of Glycogen synthase kinase-3 beta (Homo sapiens) (P49841 whole entry, looked up): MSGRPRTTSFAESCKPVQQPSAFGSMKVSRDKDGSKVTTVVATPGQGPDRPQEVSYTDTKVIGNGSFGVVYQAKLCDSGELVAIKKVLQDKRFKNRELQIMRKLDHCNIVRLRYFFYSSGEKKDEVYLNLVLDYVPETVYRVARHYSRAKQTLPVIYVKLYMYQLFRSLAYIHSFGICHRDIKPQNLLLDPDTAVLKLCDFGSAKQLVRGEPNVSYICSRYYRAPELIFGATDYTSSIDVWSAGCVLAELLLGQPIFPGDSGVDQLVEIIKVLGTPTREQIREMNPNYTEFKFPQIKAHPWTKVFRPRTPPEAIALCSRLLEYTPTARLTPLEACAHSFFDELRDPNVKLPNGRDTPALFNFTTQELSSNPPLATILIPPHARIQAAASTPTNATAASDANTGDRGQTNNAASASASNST
Chain of Interleukin-1 receptor-associated kinase 1 (Homo sapiens) (P51617 whole entry, looked up): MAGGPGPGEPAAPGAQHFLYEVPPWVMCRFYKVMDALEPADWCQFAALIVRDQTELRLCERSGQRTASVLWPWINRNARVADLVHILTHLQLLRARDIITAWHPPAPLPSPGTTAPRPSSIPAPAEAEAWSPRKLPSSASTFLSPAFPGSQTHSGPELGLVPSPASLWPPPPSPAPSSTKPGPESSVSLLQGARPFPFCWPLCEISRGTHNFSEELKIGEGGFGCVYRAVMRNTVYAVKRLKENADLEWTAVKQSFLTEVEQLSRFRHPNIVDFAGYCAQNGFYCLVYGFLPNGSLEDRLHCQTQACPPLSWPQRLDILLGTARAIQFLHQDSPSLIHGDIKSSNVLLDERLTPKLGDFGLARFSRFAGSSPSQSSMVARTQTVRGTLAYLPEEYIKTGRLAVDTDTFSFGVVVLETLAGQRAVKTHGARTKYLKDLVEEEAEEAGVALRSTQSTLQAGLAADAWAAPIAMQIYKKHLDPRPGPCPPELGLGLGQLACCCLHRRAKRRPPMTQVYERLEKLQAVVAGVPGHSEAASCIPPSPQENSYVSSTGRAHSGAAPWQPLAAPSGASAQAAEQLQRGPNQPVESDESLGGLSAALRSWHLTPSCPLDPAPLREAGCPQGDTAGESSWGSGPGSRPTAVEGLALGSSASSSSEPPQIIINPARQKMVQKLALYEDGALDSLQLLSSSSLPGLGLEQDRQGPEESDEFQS
Chain of Protein kinase C beta type (Homo sapiens) (P05771 2-671 limits assumed): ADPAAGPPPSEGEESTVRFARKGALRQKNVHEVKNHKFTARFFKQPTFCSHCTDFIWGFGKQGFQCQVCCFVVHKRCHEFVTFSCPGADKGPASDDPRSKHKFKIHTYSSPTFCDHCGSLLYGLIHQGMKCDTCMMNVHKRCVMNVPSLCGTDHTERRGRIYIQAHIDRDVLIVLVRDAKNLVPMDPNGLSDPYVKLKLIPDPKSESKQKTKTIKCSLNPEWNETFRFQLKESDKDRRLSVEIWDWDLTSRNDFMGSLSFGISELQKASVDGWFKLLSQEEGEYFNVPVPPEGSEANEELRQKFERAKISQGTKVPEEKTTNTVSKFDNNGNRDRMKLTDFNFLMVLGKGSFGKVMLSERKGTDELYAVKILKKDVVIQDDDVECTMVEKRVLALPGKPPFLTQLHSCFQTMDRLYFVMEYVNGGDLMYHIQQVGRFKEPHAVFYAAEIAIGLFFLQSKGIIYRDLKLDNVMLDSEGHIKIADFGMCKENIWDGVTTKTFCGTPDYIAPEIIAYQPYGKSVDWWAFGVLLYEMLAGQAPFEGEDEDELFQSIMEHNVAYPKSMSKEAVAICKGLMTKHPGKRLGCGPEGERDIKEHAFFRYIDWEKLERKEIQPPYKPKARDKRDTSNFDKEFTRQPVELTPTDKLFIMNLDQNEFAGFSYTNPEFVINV

For the molecule `C[C@H](Nc1ncnc2nc[nH]c12)c1cc2cccc(Cl)c2c(=O)n1-c1ccccc1`, the Activity in assay [1] worked out at 113%; in assay [2] it was 106%; in assay [3], 102%; in assay [4], 93.9%; in assay [5], 103%; in assay [6], 109%. In addition, in assay [7], the Activity came out at 102%.
For the molecule `CC[C@H](Nc1ncnc2[nH]cnc12)c1nc2cccc(F)c2c(=O)n1-c1ccccc1`, the Activity amounted to 114% in assay [1]; 104% in assay [2]; 89.1% in assay [3]; 91% in assay [4]; 108% in assay [5]; 97% in assay [6]. In assay [7], the Activity was found to be 106%.
Consider `CC(C)Oc1ccc(-c2nn([C@@H](C)c3oc4ccc(F)cc4c(=O)c3-c3cccc(F)c3)c3ncnc(N)c23)cc1F` [UMBRALISIB], for which the Activity in assay [1] is 111%; in assay [2], 100%; in assay [3] it was 95.4%; in assay [4], 91.3%; in assay [5] it was 104%; in assay [6], 112%. In addition, in assay [7], the Activity came out at 105%.
